Source: patent US20140005163A1 (NOVARTIS AG, priority 2010, published 2014)

Experiments:
[1] = molecular target: T1, PI3K alpha (Homo sapiens, UniProt P42336); assay: PI3K alpha kinase assay (Kinase-Glo luminescence); type: biochemical
T1 construct: p85(iSH2) fusion partner (see partner chain) (N); His tag (C); made in house; host or cells: baculovirus; Tn5 (Trichoplusia ni) or TiniPro insect cells
Outline: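 IC50 is taken from a four-parameter logistic fit of 8-point dilutions, with Kinase-Glo luminescence reporting residual ATP. Reactions ran 60 min at room temperature in TRIS pH 7.5 buffer with MgCl2, NaCl, CHAPS and DTT. Final levels were 10 nM enzyme, 1 μM ATP and 10 μg/mL PI.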

[2] = molecular target: T2, PI3K delta (Homo sapiens, UniProt O00329); assay: PI3K delta kinase assay (Kinase-Glo luminescence); type: biochemical
T2 construct: for the full-length p110-d subunit are generated and fused by overlapping PCR; p85(iSH2) fusion partner (see partner chain) (N); His tag (C); made in house; host or cells: baculovirus; Tn5 (Trichoplusia ni) or TiniPro insect cells
T2 sequence (O00329 with tags, fused parts or gaps limits assumed): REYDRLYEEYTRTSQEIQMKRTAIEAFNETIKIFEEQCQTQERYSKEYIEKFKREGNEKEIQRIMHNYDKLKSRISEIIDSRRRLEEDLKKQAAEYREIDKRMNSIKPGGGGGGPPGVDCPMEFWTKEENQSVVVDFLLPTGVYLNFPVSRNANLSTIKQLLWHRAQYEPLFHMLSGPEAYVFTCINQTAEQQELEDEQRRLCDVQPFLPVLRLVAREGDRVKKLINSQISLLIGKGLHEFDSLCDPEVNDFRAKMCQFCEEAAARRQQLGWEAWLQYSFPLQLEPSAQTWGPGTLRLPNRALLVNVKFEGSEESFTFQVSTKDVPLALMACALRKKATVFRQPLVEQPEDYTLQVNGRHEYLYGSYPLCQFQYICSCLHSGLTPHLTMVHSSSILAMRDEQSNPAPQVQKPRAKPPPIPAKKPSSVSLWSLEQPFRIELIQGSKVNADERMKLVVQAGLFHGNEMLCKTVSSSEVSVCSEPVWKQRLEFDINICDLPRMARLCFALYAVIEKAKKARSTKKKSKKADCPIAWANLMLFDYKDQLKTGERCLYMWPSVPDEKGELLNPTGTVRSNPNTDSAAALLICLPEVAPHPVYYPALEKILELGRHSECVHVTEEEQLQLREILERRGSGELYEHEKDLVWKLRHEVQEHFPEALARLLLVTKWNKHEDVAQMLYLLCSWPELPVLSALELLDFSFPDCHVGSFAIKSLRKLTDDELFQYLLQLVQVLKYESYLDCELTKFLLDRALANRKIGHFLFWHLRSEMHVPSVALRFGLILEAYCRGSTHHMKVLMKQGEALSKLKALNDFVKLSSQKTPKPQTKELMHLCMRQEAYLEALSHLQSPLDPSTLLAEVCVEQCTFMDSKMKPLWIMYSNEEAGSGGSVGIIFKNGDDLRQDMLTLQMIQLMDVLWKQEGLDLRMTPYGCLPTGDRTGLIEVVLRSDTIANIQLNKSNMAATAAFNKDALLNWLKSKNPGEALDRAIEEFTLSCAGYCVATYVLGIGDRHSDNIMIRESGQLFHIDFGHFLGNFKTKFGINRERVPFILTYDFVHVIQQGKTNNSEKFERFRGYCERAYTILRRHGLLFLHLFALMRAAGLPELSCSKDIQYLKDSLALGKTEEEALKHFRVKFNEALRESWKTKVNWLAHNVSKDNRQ
Outline: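 ATP depletion was measured by Kinase-Glo luminescence after a 60-minute room-temperature reaction containing 1 μM ATP, 10 μg/mL PI and 10 nM His-tagged p85(iSH2)-linker-p110δ (BV-1060). Buffer: Tris pH 7.5, 3 mM MgCl2, 50 mM NaCl, 0.05% CHAPS, 1 mM DTT. IC50 values came from four-parameter fits over eight concentrations.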

[3] = tested on: PKB Ser473 phosphorylation in Rat1-myr-HA-p110 alpha cells; assay: Reverse protein array assay, PKB Ser473 phosphorylation in Rat1-myr-p110 alpha cells; type: cell-based; conditions: 0.5 h, pAkt Ser473, 30 minutes compound incubation, read-out: p-PKB IC50
Outline: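 Cells: Rat1-myr-HA-p110 alpha/beta/delta, seeded ≥20 h. Lysis on ice 10 min; reverse-phase protein array, 4 lysate dilutions; fluorescence read, relative intensity.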

[4] = molecular target: T3, PI3K gamma (Homo sapiens, UniProt P48736); assay: PI3K gamma kinase assay (Kinase-Glo luminescence); type: biochemical
T3 construct: His tag (C); made in house; host or cells: baculovirus (pVL1393); Tn5 or TiniPro insect cells; construct from Roger Williams lab, MRC LMB
T3 sequence (P48736 144-1102 limits assumed): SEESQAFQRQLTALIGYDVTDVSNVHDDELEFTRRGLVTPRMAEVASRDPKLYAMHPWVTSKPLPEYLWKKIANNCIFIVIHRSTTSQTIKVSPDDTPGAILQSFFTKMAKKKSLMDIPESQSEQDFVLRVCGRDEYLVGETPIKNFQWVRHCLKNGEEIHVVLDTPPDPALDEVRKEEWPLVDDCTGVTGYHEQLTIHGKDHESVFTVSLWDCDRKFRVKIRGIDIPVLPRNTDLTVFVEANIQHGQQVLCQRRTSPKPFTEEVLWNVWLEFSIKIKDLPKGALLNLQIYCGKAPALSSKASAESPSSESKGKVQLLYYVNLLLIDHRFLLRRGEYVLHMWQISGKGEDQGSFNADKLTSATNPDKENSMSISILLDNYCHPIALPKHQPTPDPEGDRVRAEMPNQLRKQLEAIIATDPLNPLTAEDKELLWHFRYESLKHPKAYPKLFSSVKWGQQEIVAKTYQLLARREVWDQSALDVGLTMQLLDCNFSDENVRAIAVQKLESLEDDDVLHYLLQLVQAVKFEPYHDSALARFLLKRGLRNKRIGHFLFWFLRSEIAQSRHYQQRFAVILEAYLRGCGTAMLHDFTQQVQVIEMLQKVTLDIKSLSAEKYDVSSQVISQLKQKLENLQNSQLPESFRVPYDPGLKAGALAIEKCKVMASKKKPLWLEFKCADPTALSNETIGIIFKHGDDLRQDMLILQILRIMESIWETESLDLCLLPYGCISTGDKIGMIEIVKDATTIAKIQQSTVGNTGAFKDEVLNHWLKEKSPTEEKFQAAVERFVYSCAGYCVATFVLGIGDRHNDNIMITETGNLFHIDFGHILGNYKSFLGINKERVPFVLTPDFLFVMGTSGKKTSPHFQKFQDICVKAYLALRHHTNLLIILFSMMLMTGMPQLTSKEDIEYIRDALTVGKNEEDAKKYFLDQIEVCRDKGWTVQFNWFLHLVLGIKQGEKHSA
Outline: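 Luminescent ATP-depletion (Kinase-Glo) assay with 150 nM PI3Kγ, 1 μM ATP and 10 μg/mL phosphatidylinositol in 10 mM Tris-HCl pH 7.5, 3 mM MgCl2, 50 mM NaCl, 0.05% CHAPS, 1 mM DTT; 120 min at room temperature. Eight-point dilutions; IC50 by four-parameter logistic fit.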

[5] = Cellular CaCo2 permeability assay from apical to basal (A-B); type: in vitro ADME; conditions: human, Caco-2, read-out: Pe A-B (permeability)
Text: The permeability in 10^−6 cm/s of compounds of formula (I) have been confirmed for selected example using a cellular CaCo2 permeability assay from apical to basal (A-B): […]

T1 sequence (P42336 with tags, fused parts or gaps limits assumed): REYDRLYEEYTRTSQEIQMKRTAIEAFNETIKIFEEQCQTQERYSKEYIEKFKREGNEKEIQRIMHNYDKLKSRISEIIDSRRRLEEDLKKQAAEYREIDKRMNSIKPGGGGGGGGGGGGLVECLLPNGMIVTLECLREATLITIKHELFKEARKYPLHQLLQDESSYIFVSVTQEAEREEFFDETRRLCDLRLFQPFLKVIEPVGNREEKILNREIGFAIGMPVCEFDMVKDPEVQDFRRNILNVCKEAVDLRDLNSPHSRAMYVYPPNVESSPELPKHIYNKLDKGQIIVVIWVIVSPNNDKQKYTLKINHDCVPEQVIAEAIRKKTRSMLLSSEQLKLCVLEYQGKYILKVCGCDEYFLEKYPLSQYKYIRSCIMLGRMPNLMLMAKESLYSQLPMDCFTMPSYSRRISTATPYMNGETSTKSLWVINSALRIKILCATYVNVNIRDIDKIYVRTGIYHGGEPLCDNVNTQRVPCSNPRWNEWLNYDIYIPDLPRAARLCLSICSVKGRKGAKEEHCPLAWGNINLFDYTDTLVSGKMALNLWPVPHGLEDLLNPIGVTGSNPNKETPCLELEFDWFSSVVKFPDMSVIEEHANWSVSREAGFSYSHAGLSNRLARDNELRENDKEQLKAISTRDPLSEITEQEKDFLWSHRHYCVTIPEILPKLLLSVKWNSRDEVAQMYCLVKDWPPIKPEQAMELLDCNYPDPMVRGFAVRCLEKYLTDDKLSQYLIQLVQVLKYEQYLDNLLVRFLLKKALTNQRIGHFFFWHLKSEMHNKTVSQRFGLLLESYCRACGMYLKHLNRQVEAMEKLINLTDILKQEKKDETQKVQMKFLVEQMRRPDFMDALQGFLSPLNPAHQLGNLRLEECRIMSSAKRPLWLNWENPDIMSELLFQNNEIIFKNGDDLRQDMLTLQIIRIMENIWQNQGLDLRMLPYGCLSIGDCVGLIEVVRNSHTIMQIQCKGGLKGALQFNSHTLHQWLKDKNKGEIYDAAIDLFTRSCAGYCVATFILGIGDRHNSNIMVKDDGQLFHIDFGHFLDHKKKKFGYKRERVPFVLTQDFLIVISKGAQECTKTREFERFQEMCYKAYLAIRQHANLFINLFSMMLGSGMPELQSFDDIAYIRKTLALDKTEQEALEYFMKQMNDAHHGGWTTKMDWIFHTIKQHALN

Row | Structure (SMILES) | IC50 [1] | IC50 [2] | IC50 [3] | IC50 [4] | Papp A→B [5]
1 | CCn1cc(-n2c(=O)n(C)c3cnc4ccc(-c5cnc(OC)nc5)cc4c32)c(C)n1 [Example 17.1, 1-(1-Ethyl-3-methyl-1H-pyrazol-4-yl)-8-(2-methoxy-pyrimidin-5-yl)-3-methyl-1,3-dihydro-imidazo[4,5-c]quinolin-2-one] | 30 nM | 20 nM | 73 nM | 386 nM | –
2 | COc1ncc(-c2ccc3ncc4c(c3c2)n(-c2cn(C)nc2C)c(=O)n4C)cn1 [Example 17.2, 1-(1,3-Dimethyl-1H-pyrazol-4-yl)-8-(2-methoxy-pyrimidin-5-yl)-3-methyl-1,3-dihydro-imidazo[4,5-c]quinolin-2-one] | 56 nM | 38 nM | 19 nM | 873 nM | –
3 | CCOc1ccc(-c2ccc3ncc4c(c3c2)n(-c2c(C)nn(C)c2C)c(=O)n4C)cc1OC [Example 29.2, 8-(4-Ethoxy-3-methoxy-phenyl)-3-methyl-1-(1,3,5-trimethyl-1H-pyrazol-4-yl)-1,3-dihydro-midazo[4,5-c]quinolin-2-one] | 38 nM | 56 nM | 50 nM | 145 nM | –
4 | COCCOc1ccc(-c2ccc3ncc4c(c3c2)n(-c2cn(C)nc2C)c(=O)n4C)cc1OC [Example 30.1, 1-(1,3-Dimethyl-1H-pyrazol-4-yl)-8-[3-methoxy-4-(2-methoxy-ethoxy)-phenyl]-3-methyl-1,3-dihydro-imidazo[4,5-c]quinolin-2-one] | 22 nM | 36 nM | 30 nM | 178 nM | –
5 | Cc1nn(C)c(C)c1-n1c(=O)n(C)c2cnc3ccc(-c4cccc(O)c4)cc3c21 [Example 32.2, 8-(3-Hydroxy-phenyl)-3-methyl-1-(1,3,5-trimethyl-1H-pyrazol-4-yl)-1,3-dihydro-imidazo[4,5-c]quinolin-2-one] | 30 nM | 38 nM | 221 nM | 160 nM | –
6 | CNC(=O)c1ccc(-c2ccc3ncc4c(c3c2)n(-c2cn(C)nc2C)c(=O)n4C)cc1 [Example 43.1, 4-[1-(1,3-Dimethyl-1H-pyrazol-4-yl)-3-methyl-2-oxo-2,3-dihydro-1H-imidazo[4,5-c]quinolin-8-yl]-N-methyl-benzamide] | 10 nM | 218 nM | 14 nM | 150 nM | –
7 | Cc1nn(CC(=O)N(C)C)cc1-n1c(=O)n(C)c2cnc3ccc(-c4ccc(-n5cccn5)cc4)cc3c21 [Example 51.2, N,N-Dimethyl-2-{3-methyl-4-[3-methyl-2-oxo-8-(4-pyrazol-1-yl-phenyl)-2,3-dihydro-imidazo[4,5-c]quinolin-1-yl]-pyrazol-1-yl}-acetamide] | 8 nM | 453 nM | 15 nM | 138 nM | –
8 | CCOc1ncc(-c2ccc3ncc4c(c3c2)n(-c2cn(C)nc2C)c(=O)n4C)cn1 [Example 52, 1-(1,3-Dimethyl-1H-pyrazol-4-yl)-8-(2-ethoxy-pyrimidin-5-yl)-3-methyl-1,3-dihydro-imidazo[4,5-c]quinolin-2-one] | 56 nM | 37 nM | 6 nM | 597 nM | –
9 | COCc1cncc(-c2ccc3ncc4c(c3c2)n(-c2cn(C)nc2Cl)c(=O)n4C)c1 [Example 54.2, 1-(3-Chloro-1-methyl-1H-pyrazol-4-yl)-8-(5-methoxymethyl-pyridin-3-yl)-3-methyl-1,3-dihydro-imidazo[4,5-c]quinolin-2-one] | 30 nM | 20 nM | 42 nM | – | 33.5 ×10⁻⁶ cm/s
10 | CCn1cc(-n2c(=O)n(C)c3cnc4ccc(-c5cncc(OC(C)C)c5)cc4c32)c(C)n1 [Example 58.4, 1-(1-Ethyl-3-methyl-1H-pyrazol-4-yl)-8-(5-isopropoxy-pyridin-3-yl)-3-methyl-1,3-dihydro-imidazo[4,5-c]quinolin-2-one] | 14 nM | 12 nM | 25 nM | 253 nM | –
11 | COCCOc1cncc(-c2ccc3ncc4c(c3c2)n(-c2cn(C)nc2C)c(=O)n4C)c1 [Example 59.1, 1-(1,3-Dimethyl-1H-pyrazol-4-yl)-8-[5-(2-methoxy-ethoxy)-pyridin-3-yl]-3-methyl-1,3-dihydro-imidazo[4,5-c]quinolin-2-one] | 18 nM | 91 nM | 126 nM | 179 nM | –
12 | COCCn1c(=O)n(C)c2ncc(-c3ccc4ncc5c(c4c3)n(-c3cn(C)nc3C)c(=O)n5C)cc21 [Example 69, 1-(1,3-Dimethyl-1H-pyrazol-4-yl)-8-[1-(2-methoxy-ethyl)-3-methyl-2-oxo-2,3-dihydro-1H-imidazo[4,5-b]pyridin-6-yl]-3-methyl-1,3-dihydro-imidazo[4,5-c]quinolin-2-one] | 39 nM | 36 nM | 755 nM | 646 nM | –
13 | CCOc1cc(-c2ccc3ncc4c(c3c2)n(-c2cn(C)nc2C)c(=O)n4C)ccn1 [Example 91, 1-(1,3-Dimethyl-1H-pyrazol-4-yl)-8-(2-ethoxy-pyridin-4-yl)-3-methyl-1,3-dihydro-imidazo[4,5-c]quinolin-2-one] | 83 nM | 203 nM | 234 nM | 250 nM | –
14 | COc1ccc(-c2ccc3ncc4c(c3c2)n(-c2cn(CCO)nc2C)c(=O)n4C)cn1 [Example 103.1, 1-[1-(2-Hydroxy-ethyl)-3-methyl-1H-pyrazol-4-yl]-8-(6-methoxy-pyridin-3-yl)-3-methyl-1,3-dihydro-imidazo[4,5-c]quinolin-2-one] | 20 nM | 19 nM | 47 nM | 191 nM | –
15 | CCOc1ccc(-c2ccc3ncc4c(c3c2)n(-c2cn(CC(=O)N(C)CC)nc2C)c(=O)n4C)cn1 [Example 136, 2-{4-[8-(6-Ethoxy-pyridin-3-yl)-3-methyl-2-oxo-2,3-dihydro-imidazo[4,5-c]quinolin-1-yl]-3-methyl-pyrazol-1-yl}-N-ethyl-N-methyl-acetamide] | 25 nM | 214 nM | 11 nM | – | 17 ×10⁻⁶ cm/s
16 | CNc1ncc(-c2ccc3ncc4c(c3c2)n(-c2cn(C)nc2C)c(=O)n4C)cc1Cl [Example 146.1, 8-(5-Chloro-6-methylamino-pyridin-3-yl)-1-(1,3-dimethyl-1H-pyrazol-4-yl)-3-methyl-1,3-dihydro-imidazo[4,5-c]quinolin-2-one] | 14 nM | 16 nM | < 5 nM | – | 29.1 ×10⁻⁶ cm/s
17 | CNc1cc(-c2ccc3ncc4c(c3c2)n(-c2cn(C)nc2C)c(=O)n4C)cnc1COC [Example 159, 1-(1,3-Dimethyl-1H-pyrazol-4-yl)-8-(6-methoxymethyl-5-methylamino-pyridin-3-yl)-3-methyl-1,3-dihydro-imidazo[4,5-c]quinolin-2-one] | 34 nM | 25 nM | 7 nM | – | 13.9 ×10⁻⁶ cm/s
18 | CCOc1cc(-c2ccc3ncc4c(c3c2)n(-c2cn(C)nc2C)c(=O)n4C)cnc1COC [Example 197.1, 1-(1,3-Dimethyl-1H-pyrazol-4-yl)-8-(5-ethoxy-6-methoxymethyl-pyridin-3-yl)-3-methyl-1,3-dihydro-imidazo[4,5-c]quinolin-2-one] | 34 nM | 35 nM | 23 nM | – | 15.8 ×10⁻⁶ cm/s
19 | Cc1nn(C(C)C)cc1-n1c(=O)n(C)c2cnc3ccc(-c4cncc(C(C)(C)O)c4)cc3c21 [Example 215.1, 8-[5-(1-Hydroxy-1-methyl-ethyl)-pyridin-3-yl]-1-(1-isopropyl-3-methyl-1H-pyrazol-4-yl)-3-methyl-1,3-dihydro-imidazo[4,5-c]quinolin-2-one] | 12 nM | 14 nM | 16 nM | – | 5.9 ×10⁻⁶ cm/s
20 | CCn1c(=O)n(-c2cn(C)nc2C)c2c3nc(-c4ccc(OC)c(OC)c4)ccc3ncc21 [Example 251, 8-(3,4-Dimethoxy-phenyl)-1-(1,3-dimethyl-1H-pyrazol-4-yl)-3-ethyl-1,3-dihydro-1,3,5,9-tetraaza-cyclopenta[a]naphthalen-2-one] | 28 nM | 170 nM | 32 nM | 212 nM | –
21 | COc1ccc(-c2ccc3ncc4c(c3n2)n(-c2cc(C)nn2C)c(=O)n4C)cc1OC [Example 253, 8-(3,4-Dimethoxy-phenyl)-1-(2,5-dimethyl-2H-pyrazol-3-yl)-3-methyl-1,3-dihydro-1,3,5,9-tetraaza-cyclopenta[a]naphthalen-2-one] | 4 nM | 5 nM | 18 nM | 88 nM | –
